The supplement of paper PMC8882468
± gives the standard deviation of the averaged measurements.

Columns and labels:
Assay in all cases: CTG-3D luminescence at 96 h relative to day-0 seeding control (ratio to day 0); higher = more growth / less cytotoxicity; PDxO 3D drug screen, 96 h, CTG-3D normalised to day-0 seeding control.
HCI-003.E2 = test system: HCI-003.E2 (organoid from an ER-positive breast cancer xenograft)
HCI-008 = test system: HCI-008 (organoid from a HER2-enriched breast cancer xenograft)
HCI-010 = test system: HCI-010 (organoid from a breast cancer xenograft)
HCI-012 = test system: HCI-012 (organoid from a breast cancer xenograft)
HCI-016 = test system: HCI-016 (organoid from a triple-negative breast cancer xenograft)
HCI-027 = test system: HCI-027 (organoid from a triple-negative breast cancer xenograft)

CC(=O)O[C@H]1C(=O)[C@@]2(C)[C@H]([C@H](OC(=O)c3ccccc3)[C@]3(O)C[C@H](OC(=O)[C@H](O)[C@@H](NC(=O)c4ccccc4)c4ccccc4)C(C)=C1C3(C)C)[C@]1(OC(C)=O)CO[C@@H]1C[C@@H]2O [paclitaxel]
HCI-003.E2
Conditions | CTG-3D luminescence at 96 h
12.5 pM | 0.723 ± 0.26
0.00025 µM | 0.764 ± 0.34
0.005 µM | 0.601 ± 0.18
0.1 µM | 0.625 ± 0.068
1 µM | 0.634 ± 0.16
10 µM | 0.787 ± 0.4
100 µM | 0.992 ± 0.28
625 fM | 0.813 ± 0.22

CTG-3D luminescence at 96 h
Conditions | 12.5 pM | 0.00025 µM | 0.005 µM | 0.1 µM | 1 µM | 10 µM | 100 µM | 625 fM
HCI-008, days in culture: 228 | 1.67 ± 0.35 | 1.93 ± 0.13 | 0.719 ± 0.08 | 0.575 ± 0.049 | 0.627 ± 0.16 | 0.764 ± 0.12 | 0.554 ± 0.067 | 1.55 ± 0.12
HCI-008, days in culture: 244 | 1.16 | 1.96 | 1.22 | 0.925 | 0.832 | 0.852 | 0.58 | 2.02
HCI-010, days in culture: 52 | 2.13 | 2.39 | 2.24 | 1.16 | 1.15 | 1.12 | 0.408 | 2.28
HCI-010, days in culture: 65 | 1.61 | 1.57 | 1.36 | 1.05 | 0.898 | 0.958 | 0.43 | 1.64
HCI-010, days in culture: 103 | 3.62 | 3.37 | 3.05 | 1.41 | 1.24 | 1.28 | 0.858 | 3.06
HCI-012, days in culture: 143 | 1.61 | 1.85 | 0.96 | 0.518 | 0.54 | 0.829 | 0.769 | 1.71
HCI-012, days in culture: 162 | 2.5 | 2.34 | 1.11 | 0.633 | 0.571 | 1.14 | 1.16 | 2.67
HCI-012, days in culture: 201 | 1.12 | 0.271 | 0.477 | 0.241 | 0.609 | 0.237 | 1.01 | 0.564
HCI-016, days in culture: 153 | 1.14 | 0.515 | 0.631 | 0.561 | 0.976 | 1.08 | 0.796 | 0.781
HCI-016, days in culture: 172 | 2.25 | 1.87 | 1.29 | 0.627 | 0.505 | 0.659 | 0.505 | 1.5
HCI-016, days in culture: 190 | 1.89 | 1.42 | 0.919 | 0.359 | 0.861 | 0.704 | 0.661 | 1.05
HCI-016, days in culture: 199 | 1.64 | 1.67 | 0.633 | 0.431 | 0.495 | 0.834 | 0.484 | 1.66
HCI-027, days in culture: 176 | 2.38 | 1.31 | 0.504 | 0.265 | 0.283 | 0.392 | 0.34 | 2.59
HCI-027, days in culture: 194 | 1.95 | 1.6 | 0.751 | 0.185 | 0.242 | 0.511 | 0.427 | 1.65
HCI-027, days in culture: 201 | 2.25 | 2.16 | 0.808 | 0.215 | 0.284 | 0.563 | 0.342 | 2.03

Cc1nc(-c2cn3c(n2)-c2ccc(-c4cnn(C(C)(C)C(N)=O)c4)cc2OCC3)n(C(C)C)n1 [taselisib]
HCI-003.E2
Conditions | CTG-3D luminescence at 96 h
12.5 pM | 2.19 ± 0.79
0.00025 µM | 2.28 ± 0.68
0.005 µM | 1.77 ± 0.34
0.1 µM | 0.633 ± 0.25
1 µM | 0.183 ± 0.041
10 µM | 0.0364 ± 0.013
100 µM | 0.0189 ± 0.0028
625 fM | 2.14 ± 0.43

CTG-3D luminescence at 96 h
Conditions | 12.5 pM | 0.00025 µM | 0.005 µM | 0.1 µM | 1 µM | 10 µM | 100 µM | 625 fM
HCI-008, days in culture: 228 | 1.62 ± 0.052 | 1.54 ± 0.18 | 1.28 ± 0.12 | 0.687 ± 0.13 | 0.439 ± 0.0096 | 0.314 ± 0.11 | 0.174 ± 0.042 | 1.8 ± 0.032
HCI-008, days in culture: 244 | 1.38 | 1.94 | 1.92 | 0.848 | 0.448 | 0.358 | 0.123 | 2.25
HCI-010, days in culture: 52 | 2.17 | 2.09 | 1.97 | 2.31 | 1.65 | 0.735 | 0.0132 | 2.15
HCI-010, days in culture: 65 | 1.89 | 1.84 | 1.88 | 1.78 | 1.24 | 0.457 | 0.00794 | 1.82
HCI-010, days in culture: 103 | 3.55 | 3.66 | 3.45 | 3.46 | 2.33 | 0.906 | 0.0169 | 2.92
HCI-012, days in culture: 143 | 2.1 | 2.32 | 2.04 | 1.89 | 1.21 | 0.59 | 0.046 | 1.82
HCI-012, days in culture: 162 | 2.56 | 2.08 | 1.72 | 2.19 | 1.1 | 0.703 | 0.0208 | 2.93
HCI-012, days in culture: 201 | 2.64 | 2 | 1.44 | 1.62 | 1.56 | 0.385 | 0.0205 | 1.75
HCI-016, days in culture: 153 | 3 | 1.97 | 2.05 | 1.75 | 1.93 | 1.68 | 1.08 | 2.05
HCI-016, days in culture: 172 | 2.1 | 1.26 | 1.83 | 1.06 | 1.32 | 0.704 | 0.881 | 1.53
HCI-016, days in culture: 190 | 1.8 | 1.3 | 1.49 | 1.25 | 1.07 | 0.971 | 0.254 | 1.2
HCI-016, days in culture: 199 | 1.68 | 1.68 | 1.69 | 1.49 | 1.48 | 0.98 | 0.362 | 1.95
HCI-027, days in culture: 176 | 1.91 | 1.52 | 2.2 | 1.11 | 1.31 | 0.095 | 0.0289 | 1.82
HCI-027, days in culture: 194 | 1.73 | 1.53 | 1.35 | 1.11 | 1.6 | 0.208 | 0.00956 | 1.77
HCI-027, days in culture: 201 | 2.55 | 2.73 | 2.59 | 1.88 | 1.72 | 0.173 | 0.031 | 2.81
